Experimental data reported in patent US6384225B1, “Intermediates in the preparation of substituted chroman derivatives” (AstraZeneca AB, priority 1997, dated 2002).

melting point | Compound
191 to 192 °C | Cc1ccc(C(=O)N[C@@H]2COc3c(C)ccc(N4CCN(C)CC4)c3C2)cc1 [Example 11, (S)-N-[8-Methyl-5-(4-methylpiperazin-1-yl)-3,4-dihydro-2H-1-benzopyran-3-yl]-4-methylbenzamide]
259 °C (dec.) | CN1CCN(c2ccc(C(N)=O)c3c2C[C@H](NC(=O)c2ccc(C(=O)c4ccccc4)cc2)CO3)CC1 [Example 14, (S)-N-[8-Carbamoyl-5-(4-methylpiperazin-1-yl)-3,4-dihydro-2H-1-benzopyran-3-yl]-4-benzoylbenzamide]
202 to 204 °C | COc1ccc(N2CCN(C)CC2)c2c1OCC(C(=O)Nc1ccc(N3CCOCC3)cc1)C2 (stereo not drawn) [Example 20, N-(4-Morpholinophenyl)-8-methoxy-5-(4-methylpiperazin-1-yl)-3,4-dihydro-2H-1-benzopyran-3-carboxamide]
